Active and inactive are the calls of the source. No cut-off for these calls is given here.
Experiments:
[1] = tested on: GTPase KRas (Homo sapiens), P01116 [G12C]; assay: Inhibition of KRAS G12C mutant expressed in human LU65 cells assessed as […] at 1 uM measured after 6 hrs by TQ-UPLC/MS analysis relative to control; format: cell-based
[2] = molecular target: GTPase KRas (Homo sapiens, UniProt P01116, G12C); assay: Inhibition of GDP bound biotinylated human C-terminal Avi/His6-tagged KRAS G12C mutant (1 to 166 residues) expressed in Escherichia coli BL21 (DE3) assessed as reduction in SOS1-mediated GDP/GTP nucleotide exchange by preventing recognition between KRAS G12C mutant and Ras binding domain of N-terminal Avi/GST-tagged Raf-1 (51 to 149 residues) preincubated for 4 hrs followed by SOS1 and GTPgammaS addition by FRET assay
[3] = Distribution coefficient, log D of compound at pH 7.4; format: physicochemical; conditions: octanol/water, read-out: logD
[4] = tested on: Lu-99 cell line; assay: Antiproliferative activity against human LU99 cells expressing KRAS G12C mutant assessed as cell growth inhibition measured after 5 days by sytox green dye staining based 2D proliferation assay; format: functional
[5] = tested on: MIA PaCa-2; assay: Antitumor activity against human MIAPaCa2 cells harboring KRAS G12C mutant xenografted in orally dosed athymic NU-Fox1nu nude mouse assessed as tumor regression administered daily for 2 weeks and further treated for 3 weeks; format: functional, organism-based
[6] = tested on: Lu-99 cell line; assay: Antiproliferative activity against human LU99 cells expressing KRAS G12C mutant assessed as cell growth inhibition cultured in soft agar medium containing compounds and supplemented with fresh medium for every 7 days by 3D soft agar proliferation assay; format: functional, cell-based
[7] = Intrinsic clearance in rat hepatocytes assessed per 10^-6 cells; format: ADME, cell-based, Hepatocyte
[8] = Intrinsic clearance in human liver microsomes; format: ADME, Microsome; conditions: liver microsomes, read-out: CLH
[9] = GSH reactivity in PBS buffer assessed as half life at pH 7.4 and 37 degree C in presence of glutathione; format: physicochemical; conditions: PBS buffer with glutathione
[10] = tested on: GTPase KRas (Homo sapiens), P01116 [G12C]; assay: Inhibition of KRAS G12C mutant expressed in human Calu1 cells assessed as […] at 1 uM measured after 6 hrs by TQ-UPLC/MS analysis relative to control; format: cell-based
[11] = Efflux ratio of apparent permeability in human Caco2 cells at 10 uM at pH 7.4; format: ADME, cell-based; conditions: Caco-2, pH 7.4
[12] = tested on: GTPase KRas (Homo sapiens), P01116 [G12C]; assay: Inhibition of KRAS G12C mutant in human H358 cells assessed as […] at 1 uM measured after 6 hrs by TQ-UPLC/MS analysis relative to control; format: cell-based
[13] = in vivo; conditions: Han Wistar, rat, po, 2 umol/kg
[14] = tested on: Mus musculus; assay: Decrease in DUSP6 mRNA level in tumor of athymic NU-Fox1nu mouse xenografted with human MIAPaca2 cells at 10 to 100 mg/kg, po qd measured at 3 to 24 hrs post-treatment by qRT-PCR analysis; format: functional, organism-based
[15] = tested on: GTPase KRas (Homo sapiens), P01116 [G12C]; assay: Inhibition of KRAS G12C mutant expressed in human HOP62 cells assessed as […] at 1 uM measured after 6 hrs by TQ-UPLC/MS analysis relative to control; format: cell-based
[16] = tested on: GTPase KRas (Homo sapiens), P01116 [G12C]; assay: Inhibition of KRAS G12C mutant expressed in human H1373 cells assessed as […] at 1 uM measured after 6 hrs by TQ-UPLC/MS analysis relative to control; format: cell-based
[17] = tested on: GTPase KRas (Homo sapiens), P01116 [G12C]; assay: Inhibition of KRAS G12C mutant expressed in human H2122 cells assessed as […] at 1 uM measured after 6 hrs by TQ-UPLC/MS analysis relative to control; format: cell-based
[18] = Volume of distribution at steady state in Han Wistar rat at 2 umol/kg, po or 1 umol/kg, iv; conditions: in vivo
[19] = tested on: SW1573; assay: Antiproliferative activity against human SW1573 cells harboring KRAS G12C mutant assessed as cell growth inhibition measured after 5 days by sytox green dye staining based 2D proliferation assay; format: functional
[20] = molecular target: GTPase KRas (Homo sapiens) (UniProt P01116); assay: Inhibition of wild type KRAS expressed in human PC9 cells assessed as […] at 1 uM measured after 6 hrs by TQ-UPLC/MS analysis; format: cell-based
[21] = tested on: GTPase KRas (Homo sapiens), P01116 [G12C]; assay: Binding affinity to KRAS G12C mutant in human […] cell lysate assessed as trypsin-mediated biotinylated cysteine residues digestion by measuring reduction in protein level at 4 uM prelabeled with iodoacetamide desthiobiotin followed by compound treatment measured after 4 hrs by MS analysis relative to control; format: subcellular
[22] = tested on: GTPase KRas (Homo sapiens), P01116 [G12C]; assay: Inhibition of KRAS G12C mutant expressed in human HCC44 cells assessed as […] at 1 uM measured after 6 hrs by TQ-UPLC/MS analysis relative to control; format: cell-based
[23] = tested on: GTPase KRas (Homo sapiens), P01116 [UNDEFINED MUTATION]; assay: Inhibition of KRas mutant expressed in human A549 cells assessed as […] at 1 uM measured after 6 hrs by TQ-UPLC/MS analysis; format: cell-based
[24] = tested on: GTPase KRas (Homo sapiens), P01116 [G12C]; assay: Inhibition of KRAS G12C mutant expressed in human H23 cells assessed as […] at 1 uM measured after 6 hrs by TQ-UPLC/MS analysis relative to control; format: cell-based
[25] = Clearance in Han Wistar rat at 2 umol/kg, po or 1 umol/kg, iv; conditions: in vivo
[26] = tested on: GTPase KRas (Homo sapiens), P01116 [UNDEFINED MUTATION]; assay: Inhibition of KRas mutant expressed in human H2291 cells assessed as […] at 1 uM measured after 6 hrs by TQ-UPLC/MS analysis; format: cell-based
[27] = tested on: GTPase KRas (Homo sapiens), P01116 [G12C]; assay: Inhibition of KRAS G12C mutant expressed in human SW1573 cells assessed as […] at 1 uM measured after 6 hrs by TQ-UPLC/MS analysis relative to control; format: cell-based
[28] = tested on: GTPase KRas (Homo sapiens), P01116 [G12C]; assay: Inhibition of KRAS G12C mutant expressed in human H1792 cells assessed as […] at 1 uM measured after 6 hrs by TQ-UPLC/MS analysis relative to control; format: cell-based
[29] = tested on: SW1573; assay: Antiproliferative activity against human SW1573 cells expressing KRAS G12C mutant assessed as cell growth inhibition cultured in soft agar medium containing compounds and supplemented with fresh medium for every 7 days by 3D soft agar proliferation assay; format: functional, cell-based
[30] = tested on: GTPase KRas (Homo sapiens), P01116 [G12C]; assay: Inhibition of KRAS G12C mutant expressed in human LU99 cells assessed as […] at 1 uM measured after 6 hrs by TQ-UPLC/MS analysis relative to control; format: cell-based

C=CC(=O)N1C[C@@H]2C(=O)N(C)c3cnc4c(F)c(-c5c(O)cccc5F)c(Cl)cc4c3N2C[C@H]1C
inhibition [1]: 84%
IC50 [2]: < 5 nM
logD [3]: 3.4
growth inhibition (GI) [4]: inactive
Activity [5]: Dose-dependent effect
growth inhibition (GI) [6]: inactive
hepatocyte intrinsic clearance [7]: 11 µL/min
microsomal CLint [8]: 21 µL/min/mg
half-life [9]: 334 min
inhibition [10]: 73%
efflux ratio at 10 µM [11]: 1.1
inhibition [12]: 82%
bioavailability [13]: 94%
inhibition [14]: Active
inhibition [15]: 89%
inhibition [16]: 86%
inhibition [17]: 74%
Vd [18]: 1 L/kg
growth inhibition (GI) [19]: inactive
inhibition [20]: inactive
fold change (FC) [21]: > 2
inhibition [22]: 79%
inhibition [23]: inactive
inhibition [24]: 80%
clearance [25]: 4 mL/min/kg
inhibition [26]: inactive
inhibition [27]: 70%
inhibition [28]: 75%
growth inhibition (GI) [29]: inactive
inhibition [30]: 100%

Source: ChEMBL document CHEMBL4402559, “Structure-Based Design and Pharmacokinetic Optimization of Covalent Allosteric Inhibitors of the Mutant GTPase KRASG12C” (J Med Chem, 2020)
